Reference: patent publication US20240226101A1, “PYRIMIDINYLAMINOBENZENES FOR LUNG CANCER TREATMENT” (Suzhou Puhe BioPharma Co., LTD., priority 2021, published 2024)
Where “and” joins values, the source holds several entries; their conditions need not be identical. Equal entries are not always repeated.

Experiments:
EGFR L861Q = EGFR L861Q (Homo sapiens, UniProt P00533, L861Q); experiment: HTFR KINEASE-TK kit (Cisbio) inhibition of EGFR mutant L861Q; format: biochemical
Protocol: (§1) Compound A13 was tested against EGFR mutants: (i) three exon 20 insertions: […], D770_N771insNPG, and A763_Y764insFQEA; and (ii) one point mutation: L861Q; using an HTFR KINEASE-TK kit (Cisbio) according to the manufacturer's protocol.

EGFR A763_Y764insFQEA = EGFR A763_Y764insFQEA (Homo sapiens, UniProt P00533, INS763FQEA); experiment: HTFR KINEASE-TK kit (Cisbio) inhibition of EGFR mutant A763_Y764insFQEA; format: biochemical
Protocol: as §1

EGFR V769_D770insGE = EGFR V769_D770insGE (Homo sapiens, UniProt P00533, INS769GE); experiment: HTFR KINEASE-TK kit (Cisbio) inhibition of EGFR mutant V769_D770insGE; format: biochemical
Protocol: as §1

EGFR D770_N771insNPG = EGFR D770_N771insNPG (Homo sapiens, UniProt P00533, INS770NPG); experiment: HTFR KINEASE-TK kit (Cisbio) inhibition of EGFR mutant D770_N771insNPG; format: biochemical
Protocol: as §1

[1] = biological target: T1, EGFR G719S in Ba/F3 cell lines (Homo sapiens, UniProt P00533, G719S); experiment: […]-GLO cell viability assay, Ba/F3 cells with EGFR G719S; format: cell-based
T1 construct: expressed in transfected cells; host or cells: Ba/F3

[2] = biological target: T2, EGFR L861Q in Ba/F3 cell lines (Homo sapiens, UniProt P00533, L861Q); experiment: […]-GLO cell viability assay, Ba/F3 cells with EGFR L861Q; format: cell-based
T2 construct: expressed in transfected cells; host or cells: Ba/F3

[3] = biological target: T3, EGFR A763_Y764insFQEA in Ba/F3 cell lines (Homo sapiens, UniProt P00533, INS763FQEA); experiment: […]-GLO cell viability assay, Ba/F3 cells with EGFR A763_Y764insFQEA; format: cell-based
T3 construct: expressed in transfected cells; host or cells: Ba/F3

[4] = biological target: T4, EGFR V769_D770insASV in Ba/F3 cell lines (Homo sapiens, UniProt P00533, INS769ASV); experiment: […]-GLO cell viability assay, Ba/F3 cells with EGFR V769_D770insASV; format: cell-based
T4 construct: expressed in transfected cells; host or cells: Ba/F3

[5] = biological target: T5, EGFR D770_N771insSVD in Ba/F3 cell lines (Homo sapiens, UniProt P00533, INS770SVD); experiment: […]-GLO cell viability assay, Ba/F3 cells with EGFR D770_N771insSVD; format: cell-based
T5 construct: expressed in transfected cells; host or cells: Ba/F3

[6] = biological target: T6, EGFR H773_V774insNPH in Ba/F3 cell lines (Homo sapiens, UniProt P00533, INS773NPH); experiment: […]-GLO cell viability assay, Ba/F3 cells with EGFR H773_V774insNPH; format: cell-based
T6 construct: expressed in transfected cells; host or cells: Ba/F3

[7] = tested on: LU0387 lung cancer PDX model; experiment: Antitumor activity in subcutaneous LU0387 lung cancer PDX xenograft mouse model; format: in vivo; conditions: for TV (mm^3) on Day 0: Day 0 (randomization, baseline); for TV (mm^3) on Day 0 / RTV (relative tumor volume) / TV (mm^3) on Day 21: benzoate salt
Protocol: Compound A13 as a single agent was evaluated for lung cancer treatment in a subcutaneous LU0387 lung cancer PDX model using female Balb/c nude mice. Tumor fragments from stock mice were harvested for inoculation into mice. Each mouse was inoculated subcutaneously in the right rear flank with a PDX model LU0387 tumor fragment (2-3 mm in diameter) for tumor development.
The randomization started when the mean tumor size reached approximately 517.37 mm^3. Twenty-four mice were randomly allocated to 8 study groups, with 3 mice per group. The date of randomization was designated as Day 0.
After tumor inoculation, the mice were checked daily for morbidity and mortality. The mice were checked for any effects of tumor growth and treatments on behavior such as mobility, food and water consumption, body weight gain/loss, eye/hair matting, and any abnormalities. Mortality and observed clinical signs were recorded for each individual mouse in detail.
Tumor volumes (TV) were measured twice per week after randomization using a caliper and the volume was calculated using the formula: V=(L×W×W)/2, where V is tumor volume, L is tumor length (the longest tumor dimension), and W is tumor width (the longest tumor dimension perpendicular to L).
Compound A13 was administered orally as a benzoate salt in a citrate/phosphate buffer at pH 4.0 at 20, 40, and 80 mg/kg once daily for 21 days. The results are summarized in Table 3, where RTV represents relative tumor volume.

[8] = Pharmacokinetics in the xenograft mouse model, single oral dose; format: in vivo, Balb/c Mice; conditions: 80 mg/kg single oral dose
Protocol: Using the same xenograft mouse model, the pharmacokinetic (PK) parameters of compound A13 were determined at 80 mg/kg with a single oral dose. For each mouse, blood samples were collected at 0, 1, 2, 4, 8, 16, and 24 h after dosing.

[9] = 20 mg/kg orally once daily for 21 days
[10] = 40 mg/kg orally once daily for 21 days

T5 sequence (P00533 with tags, fused parts or gaps INS770SVD): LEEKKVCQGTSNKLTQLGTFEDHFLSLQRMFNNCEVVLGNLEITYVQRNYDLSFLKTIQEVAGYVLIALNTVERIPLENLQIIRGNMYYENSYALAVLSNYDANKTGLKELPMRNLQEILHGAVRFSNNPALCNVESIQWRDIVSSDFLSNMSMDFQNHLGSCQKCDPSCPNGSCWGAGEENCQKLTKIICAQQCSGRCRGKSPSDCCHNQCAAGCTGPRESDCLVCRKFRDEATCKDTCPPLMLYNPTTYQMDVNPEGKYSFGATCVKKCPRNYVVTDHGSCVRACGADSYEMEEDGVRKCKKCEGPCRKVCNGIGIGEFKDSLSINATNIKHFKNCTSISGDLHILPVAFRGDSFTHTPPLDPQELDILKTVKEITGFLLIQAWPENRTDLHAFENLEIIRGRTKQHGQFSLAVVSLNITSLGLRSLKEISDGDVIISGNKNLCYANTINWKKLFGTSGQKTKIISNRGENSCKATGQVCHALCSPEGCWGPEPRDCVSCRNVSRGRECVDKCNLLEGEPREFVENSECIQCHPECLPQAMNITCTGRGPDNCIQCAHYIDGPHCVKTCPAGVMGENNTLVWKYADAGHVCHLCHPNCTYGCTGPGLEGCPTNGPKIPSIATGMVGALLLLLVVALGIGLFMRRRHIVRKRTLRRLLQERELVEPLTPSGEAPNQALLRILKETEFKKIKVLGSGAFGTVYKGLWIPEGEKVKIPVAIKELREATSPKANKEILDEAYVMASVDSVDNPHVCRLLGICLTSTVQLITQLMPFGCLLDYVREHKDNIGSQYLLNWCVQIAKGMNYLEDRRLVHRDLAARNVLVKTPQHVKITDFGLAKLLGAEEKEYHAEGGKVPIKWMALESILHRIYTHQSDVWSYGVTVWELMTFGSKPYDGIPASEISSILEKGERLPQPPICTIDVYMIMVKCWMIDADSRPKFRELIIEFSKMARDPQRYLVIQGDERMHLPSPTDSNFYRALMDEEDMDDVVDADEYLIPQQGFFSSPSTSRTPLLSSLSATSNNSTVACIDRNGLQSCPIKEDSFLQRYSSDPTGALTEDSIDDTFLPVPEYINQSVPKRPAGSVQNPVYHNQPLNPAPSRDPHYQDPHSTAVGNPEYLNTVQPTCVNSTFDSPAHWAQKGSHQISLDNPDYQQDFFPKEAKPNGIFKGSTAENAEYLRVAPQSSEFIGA
T2 sequence (P00533 25-1210 L861Q): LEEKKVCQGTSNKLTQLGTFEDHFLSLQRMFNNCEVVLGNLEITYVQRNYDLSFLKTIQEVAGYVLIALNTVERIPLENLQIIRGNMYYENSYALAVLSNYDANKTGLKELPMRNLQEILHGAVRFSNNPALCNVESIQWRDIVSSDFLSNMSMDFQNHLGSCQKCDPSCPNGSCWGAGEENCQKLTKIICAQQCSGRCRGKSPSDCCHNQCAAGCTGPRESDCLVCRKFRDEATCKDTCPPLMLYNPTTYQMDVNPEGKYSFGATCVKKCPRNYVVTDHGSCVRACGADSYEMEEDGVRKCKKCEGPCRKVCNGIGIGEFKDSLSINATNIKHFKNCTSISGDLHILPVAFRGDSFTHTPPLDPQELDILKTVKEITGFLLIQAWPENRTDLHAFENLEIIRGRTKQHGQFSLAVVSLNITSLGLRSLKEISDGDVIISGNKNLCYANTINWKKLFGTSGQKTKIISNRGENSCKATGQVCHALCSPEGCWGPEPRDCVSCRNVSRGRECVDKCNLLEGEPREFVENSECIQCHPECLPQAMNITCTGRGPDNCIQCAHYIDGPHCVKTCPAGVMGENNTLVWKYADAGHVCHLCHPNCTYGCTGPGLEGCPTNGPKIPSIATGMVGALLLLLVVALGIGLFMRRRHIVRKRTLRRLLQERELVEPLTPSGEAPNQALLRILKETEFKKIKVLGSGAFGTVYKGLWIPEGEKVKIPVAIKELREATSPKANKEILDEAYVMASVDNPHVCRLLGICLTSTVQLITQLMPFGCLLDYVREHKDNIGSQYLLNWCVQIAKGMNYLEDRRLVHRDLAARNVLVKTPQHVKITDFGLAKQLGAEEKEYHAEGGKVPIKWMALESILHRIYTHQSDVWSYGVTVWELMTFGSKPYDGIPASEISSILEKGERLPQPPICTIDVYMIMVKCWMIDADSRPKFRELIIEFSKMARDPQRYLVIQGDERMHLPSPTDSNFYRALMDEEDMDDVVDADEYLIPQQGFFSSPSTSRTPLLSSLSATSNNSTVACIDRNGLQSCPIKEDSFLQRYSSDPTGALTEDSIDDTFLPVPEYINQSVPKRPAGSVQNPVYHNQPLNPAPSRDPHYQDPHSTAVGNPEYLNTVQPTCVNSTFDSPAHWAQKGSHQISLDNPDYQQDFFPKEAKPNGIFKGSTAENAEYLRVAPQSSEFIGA
Sequence of EGFR L861Q (P00533 25-1210 L861Q): as above
Sequence of EGFR D770_N771insNPG (P00533 with tags, fused parts or gaps INS770NPG): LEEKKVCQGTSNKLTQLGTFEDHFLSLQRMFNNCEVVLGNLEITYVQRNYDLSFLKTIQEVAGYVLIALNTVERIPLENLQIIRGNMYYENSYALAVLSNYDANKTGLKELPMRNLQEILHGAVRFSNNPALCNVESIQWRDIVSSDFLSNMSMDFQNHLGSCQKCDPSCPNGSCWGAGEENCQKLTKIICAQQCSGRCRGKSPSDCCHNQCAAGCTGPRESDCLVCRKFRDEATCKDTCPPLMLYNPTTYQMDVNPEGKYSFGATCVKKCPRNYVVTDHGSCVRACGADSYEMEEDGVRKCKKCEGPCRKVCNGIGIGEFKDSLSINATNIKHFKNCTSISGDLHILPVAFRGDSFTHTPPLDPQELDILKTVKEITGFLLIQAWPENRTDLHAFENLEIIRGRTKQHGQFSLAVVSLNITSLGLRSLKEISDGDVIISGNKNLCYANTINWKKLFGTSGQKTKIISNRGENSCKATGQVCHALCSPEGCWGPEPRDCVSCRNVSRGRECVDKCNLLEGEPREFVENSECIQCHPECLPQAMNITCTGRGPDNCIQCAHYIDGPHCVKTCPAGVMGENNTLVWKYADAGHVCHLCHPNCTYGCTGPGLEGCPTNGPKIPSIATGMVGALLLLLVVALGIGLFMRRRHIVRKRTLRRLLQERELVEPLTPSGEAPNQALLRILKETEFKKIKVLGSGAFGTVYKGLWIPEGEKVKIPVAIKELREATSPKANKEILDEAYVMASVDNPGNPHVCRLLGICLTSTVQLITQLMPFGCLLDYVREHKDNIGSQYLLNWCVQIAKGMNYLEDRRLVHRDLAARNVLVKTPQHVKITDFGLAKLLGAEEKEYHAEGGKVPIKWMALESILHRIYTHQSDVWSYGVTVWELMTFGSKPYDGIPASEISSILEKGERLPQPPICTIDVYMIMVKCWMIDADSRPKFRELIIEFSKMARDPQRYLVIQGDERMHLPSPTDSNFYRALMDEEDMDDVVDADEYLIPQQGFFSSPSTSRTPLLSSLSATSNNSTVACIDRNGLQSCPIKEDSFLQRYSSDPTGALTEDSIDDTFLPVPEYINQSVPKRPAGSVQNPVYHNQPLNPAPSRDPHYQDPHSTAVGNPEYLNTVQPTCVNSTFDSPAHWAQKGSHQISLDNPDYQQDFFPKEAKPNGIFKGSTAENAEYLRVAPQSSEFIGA

In the case of C=CC(=O)Nc1cc(Nc2nccc(-c3cnc4c(C)cccn34)n2)c(OC)cc1N(C)CCN(C)C [A13, N-(2-((2-(dimethylamino)ethyl)(methyl)amino)-4-methoxy-5-((4-(8-methylimidazo[1,2-a]-pyridin-3-yl)pyrimidin-2-yl)amino)phenyl)acrylamide], the IC50 (EGFR L861Q) is reported as 0.36 nM, the IC50 (EGFR A763_Y764insFQEA) is reported as 0.73 nM and the IC50 (EGFR V769_D770insGE) is reported as 0.62 nM. The IC50 (EGFR D770_N771insNPG) was 0.42 nM, the IC50 [1] was 2 nM and the IC50 [2] was 5 nM. For the same molecule, the IC50 [3] was 4 nM, the IC50 [4] was 73 nM and the IC50 [5] was 29 nM. For the same molecule, the IC50 [6] was 62 nM, the “TV (mm^3) on Day 0” value ([7]; 20 mg/kg group) was 86 ± 6 mm^3 and the “RTV (relative tumor volume)” value [7, 9] was 517 ± 61. The “TV (mm^3) on Day 21” value [7, 9] was 602 ± 67 mm^3, the “TV (mm^3) on Day 0” value ([7]; 40 mg/kg group) was 89 ± 6 mm^3 and the “RTV (relative tumor volume)” value [7, 10] was 281. For the same molecule, the “TV (mm^3) on Day 21” value [7, 10] was 370 ± 31 mm^3, the “TGI (tumor growth inhibition)” value ([7]; 40 mg/kg orally once daily for 21 days, vs. vehicle control (P=0.016)) was 61% and the “TV (mm^3) on Day 0” value ([7]; 80 mg/kg group) was 86 mm^3 and 86 ± 6 mm^3. For the same molecule, the “TV (mm^3) on Day 21” value ([7]; 80 mg/kg orally once daily for 21 days) was 36 mm^3 and 36 ± 9 mm^3, the “TGI (tumor growth inhibition)” value ([7]; 80 mg/kg orally once daily for 21 days, vs. vehicle control (P<0.001)) was 107% and the Tolerability ([7]; 20, 40, and 80 mg/kg orally once daily for 21 days in tumor-bearing mice) was “well tolerated”. The CLz [8] was 21.2 ± 1.8 L/h/kg, the Vz [8] was 52 ± 17 L/kg and the Cmax ([8]; Balb/c, mouse, blood) was 1380 ± 432 ng/mL. For the same molecule, the half-life ([8]; Balb/c, mouse, blood) was 102 ± 36 min and the AUC(0-t) ([8]; Balb/c, mouse, blood, 0-24 h) was 3600 ± 273 ng·h/mL.
